Publication PMC6851324, “Design and development of stapled transmembrane peptides that disrupt the activity of G-protein–coupled receptor oligomers” (The Journal of Biological Chemistry, 2019)
Where two headings read alike, the source gives them in different places. Where a SMILES comes first, the peptide text is derived from it. Bridges are numbered along the chain shown (N, C = ends). Where no end group is shown, it is not given here. [ ]: non-standard residue; d: D form. S5 = C=CCCC[C@](C)(N)C(=O)O; Nle = CCCC[C@H](N)C(=O)O

Assays:
[1] = biological target: T1, trypsin from porcine pancreas (Sus scrofa, UniProt P00761); experiment: Proteolytic stability against trypsin; assay type: in vitro ADME; details: pig
T1 construct: purchased Sigma; host or cells: porcine pancreas
T1 sequence (P00761 9-231): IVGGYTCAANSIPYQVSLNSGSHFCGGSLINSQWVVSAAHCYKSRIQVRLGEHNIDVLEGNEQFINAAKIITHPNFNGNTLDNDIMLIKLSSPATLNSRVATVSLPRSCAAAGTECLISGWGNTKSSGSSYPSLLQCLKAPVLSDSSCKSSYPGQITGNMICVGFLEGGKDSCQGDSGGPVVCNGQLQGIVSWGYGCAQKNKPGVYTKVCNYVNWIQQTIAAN
Method: Figure 4. Biophysical analysis of stapled peptides. A, amino acid sequence alignment of the targeted TM regions and disrupting peptides. Cys residues are in the reduced state. Blue bridges indicate the stapled amino acid residues. […] Yields, purity, and MALDI-TOF data are shown for the stapled peptides and negative control. B, CD analysis of 30–50 μM peptides at 20 °C. For proteolytic stability studies, the peptide solution (55.5 μM for trypsin and chymotrypsin and 11.1 μM for serum) was incubated in the presence of 0.55 μg/ml trypsin from porcine pancreas (E), α-chymotrypsin (F), or mouse serum (G) at 37 °C for the indicated times (indicated on the x axis). Data are mean ± S.E. (error bars) (n = 3) percentage of intact peptide normalized to t = 0. Proteolytic half-lives and putative cleavage sites (predicted using the Expasy bioinformatics server's model with a 50% probability of cleavage) are indicated at the bottom of each panel. Positive correlation between helicity and half-life in trypsin/chymotrypsin (C) or serum (D) was determined by two-tailed Pearson's correlation test. TEXT PRINTED IN THE PICTURE: (B) TM7-TAT: Ellipticity (%): 3.4 | (B) TM6-TAT: Ellipticity (%): 18.3 | (B) TM5-TAT: Ellipticity (%): 20.9 | (B) 8: Ellipticity (%): 58.3 | (B) 9: Ellipticity (%): 46.4 | (B) 10: Ellipticity (%): 36.8 | (B) 11: Ellipticity (%): 46 | (E) TM7-TAT: Half-life (min): 21; #Cleavage sites: 8 | (E) TM6-TAT: Half-life (min): 40; #Cleavage sites: 7 | (E) TM5-TAT: Half-life (min): 33; #Cleavage sites: 8 | (E) 8: Half-life (min): 307; #Cleavage sites: 0 | (E) 9: Half-life (min): 178; #Cleavage sites: 0 | (E) 10: Half-life (min): 75; #Cleavage sites: 6 | (E) 11: Half-life (min): 84; #Cleavage sites: 0 | (F) TM7-TAT: Half-life (min): 22; #Cleavage sites: 6 | (F) TM6-TAT: Half-life (min): 32; #Cleavage sites: 7 | (F) TM5-TAT: Half-life (min): 28; #Cleavage sites: 7 | (F) 8: Half-life (min): 425; #Cleavage sites: 4 | (F) 9: Half-life (min): 198; #Cleavage sites: 3 | (F) 10: Half-life (min): 63; #Cleavage sites: 2 | (F) 11: Half-life (min): 79; #Cleavage sites: 4 | (G) TM7-TAT: Half-life (hours): 0.46 | (G) TM6-TAT: Half-life (hours): 0.55 | (G) TM5-TAT: Half-life (hours): 0.81 | (G) 8: Half-life (hours): ≥18 | (G) 9: Half-life (hours): 14.7 | (G) 10: Half-life (hours): 11.7 | (G) 11: Half-life (hours): 5.3 DOUBTS OF THE COPYIST ABOUT THIS PICTURE: Panel A table (Yield, Rt, Purity, [M+H+] calc., [M+H+] Peak Found for 7-11) left out as synthesis and mass-spectrum characterisation data; uncertain whether [M+H+] calc. should count as a molecular weight
Dose–response curves were fitted using a four-parameter logistic nonlinear regression mode. Peptide stability data were fitted using a nonlinear regression mode for dissociation kinetics. All statistical tests, curve fitting, and graphing were performed using GraphPad Prism 8 (GraphPad Software, La Jolla, CA).
To 100 μl of peptide solution (100 μM, dissolved in ammonium bicarbonate buffer, pH 7.5), 60 μl of ammonium bicarbonate buffer (pH 7.5) was added, together with 20 μl of temperature-equilibrated (37 ± 1 °C) trypsin (5 μg/ml) from porcine pancreas (Sigma, 13,000–20,000 BAEE units/mg of protein). Peptides were incubated for 15, 30, 60, 120, 240, and 480 min, and then MeOH (HPLC Grade) + 0.05% TFA was added. The samples were then centrifuged (15,000 rpm), and the supernatant was analyzed, using Fmoc-Gly (10 μl, 0.2 mM) as an internal standard. The digestion at each time point was repeated three times to give the average values along with S.D. The amount of intact peptide that remained in the mixture was quantified by RP-HPLC. The experiment was repeated twice on different days.

CD helicity measurements = assay type: physicochemical; details: 30–50 μM peptide in MilliQ water, 20 °C, 1-mm path length, three scans 195–260 nm, % helicity from molar ellipticity at 222 nm
Method: Figure 4. Biophysical analysis of stapled peptides. A, amino acid sequence alignment of the targeted TM regions and disrupting peptides. Cys residues are in the reduced state. Blue bridges indicate the stapled amino acid residues. […] Yields, purity, and MALDI-TOF data are shown for the stapled peptides and negative control. B, CD analysis of 30–50 μM peptides at 20 °C. For proteolytic stability studies, the peptide solution (55.5 μM for trypsin and chymotrypsin and 11.1 μM for serum) was incubated in the presence of 0.55 μg/ml trypsin from porcine pancreas (E), α-chymotrypsin (F), or mouse serum (G) at 37 °C for the indicated times (indicated on the x axis). Data are mean ± S.E. (error bars) (n = 3) percentage of intact peptide normalized to t = 0. Proteolytic half-lives and putative cleavage sites (predicted using the Expasy bioinformatics server's model with a 50% probability of cleavage) are indicated at the bottom of each panel. Positive correlation between helicity and half-life in trypsin/chymotrypsin (C) or serum (D) was determined by two-tailed Pearson's correlation test. […]
CD spectra were recorded on a Jasco J-810 with a total of three scans from 195 to 260 nm in 0.5-nm increments. […]
The Jasco J-810 generates the raw output in ellipticity and is measured in millidegrees. […] Once the precise concentration was confirmed, the molar ellipticity [θ] was calculated as follows. […]
Where c is the sample concentration (μM), l is the path length (mm), n is the number of peptide bonds (calculated as amino acid residues − 1), and θobs is the observed ellipticity (millidegrees). […]

[2] = isolated enzyme trypsin, 55.5 μM peptide, 0.55 μg/ml trypsin from porcine pancreas, ammonium bicarbonate buffer pH 7.5, 37 °C, 15–480 min, intact peptide by RP-HPLC (Fmoc-Gly internal standard), n = 3, nonlinear regression fit, read-out: Half-life (min), trypsin

Compound | half-life at 55.5 μM [1, 2] [min] | Ellipticity (%) (helicity by CD) (CD helicity measurements; listed as CB1 TM5-TAT) | Ellipticity (%) (helicity by CD) (CD helicity measurements) | half-life at 55.5 μM ([1]; isolated enzyme trypsin, pH 7.5, Half-life (min), trypsin) [min] | half-life at 55.5 μM ([1]; trypsin from porcine pancreas, pH 7.5, trypsin 0.55 μg/ml, 37 °C, pH 7.5, approximate value of running text, read-out: half-life in trypsin as stated in text (converted)) [min] | half-life at 55.5 μM ([1]; 55.5 μM peptide, 0.55 μg/ml trypsin from porcine pancreas, ammonium bicarbonate buffer pH 7.5, 37 °C, 15–480 min, intact peptide by RP-HPLC (Fmoc-Gly internal standard), n = 3, nonlinear regression fit, read-out: Half-life (min), trypsin) [min]
ETYLMFWIGVTSVLLLFIVYAYMYILWGRKKRRQRRR [TM5-TAT, reference compound] | 33 | < 20 | – | – | – | –
GRKKRRQRRRKTLVLILVVLIICWGPLLAIMVY [TM6-TAT, reference compound] | 40 | – | < 20 | – | – | –
C=CCCC[C@](C)(NC(=O)[C@H](Cc1ccc(O)cc1)NC(=O)[C@@H](N)C(C)C)C(=O)N[C@@H](Cc1ccc(O)cc1)C(=O)N[C@@H](CCCC)C(=O)N[C@@](C)(CCCC=C)C(=O)N[C@H](C(=O)N[C@@H](CC(C)C)C(=O)N[C@@H](Cc1c[nH]c2ccccc12)C(N)=O)[C@@H](C)CC [Peptide 11] (H-VY[S5]Y[Nle][S5]ILW-NH2) | – | – | 46.0 | 84 | – | –
CCCC[C@H](NC(=O)[C@]1(C)CCC/C=C\CCC[C@](C)(NC(=O)[C@H](Cc2ccccc2)NC(=O)[C@H](CC(C)C)NC(=O)[C@H](CC(C)C)NC(=O)[C@H](CC(C)C)NC(=O)[C@@H](N)C(C)C)C(=O)N[C@@H](C(C)C)C(=O)N[C@@H](Cc2ccc(O)cc2)C(=O)N[C@@H](C)C(=O)N1)C(=O)N[C@@H](Cc1ccc(O)cc1)C(=O)N[C@H](C(=O)N[C@@H](CC(C)C)C(=O)N[C@@H](Cc1c[nH]c2ccccc12)C(N)=O)[C@@H](C)CC [Peptide 8] (H-VLLLF[S5]VYA[S5][Nle]YILW-NH2; staple (Z) 6-10) | – | – | 58.3 | – | ~300 | 307
